Results reported in patent US10189839B2, “Tricyclic imidazole compounds as inhibitors of tryptophan hydroxylase” (ACTELION PHARMACEUTICALS LTD, priority 2013, dated 2019).

The compounds below were run against T1, full length human TPH1 (Homo sapiens, UniProt P17752) (assay: Biochemical in vitro assay using fluorescence readout (TPH1 enzyme activity)). Conditions: Table 1, mean where determined several times.
T1 construct: To generate the enzyme, full length human TPH1 is cloned into the plasmid pET20b(+); made in house; host or cells: E. coli
T1 sequence (P17752 1-444): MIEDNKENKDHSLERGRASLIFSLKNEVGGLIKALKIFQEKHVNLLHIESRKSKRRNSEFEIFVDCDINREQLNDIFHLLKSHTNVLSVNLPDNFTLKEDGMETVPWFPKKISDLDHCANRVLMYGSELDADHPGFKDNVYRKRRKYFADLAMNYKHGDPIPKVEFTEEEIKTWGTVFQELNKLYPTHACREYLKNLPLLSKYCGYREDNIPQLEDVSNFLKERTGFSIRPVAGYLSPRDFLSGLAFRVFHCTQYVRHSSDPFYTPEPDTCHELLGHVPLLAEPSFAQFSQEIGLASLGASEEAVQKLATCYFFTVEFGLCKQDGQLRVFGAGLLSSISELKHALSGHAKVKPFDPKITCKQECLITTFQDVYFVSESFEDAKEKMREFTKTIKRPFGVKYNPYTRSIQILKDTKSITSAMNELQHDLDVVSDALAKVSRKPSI
From the text: Inhibitory activities on tryptophan hydroxylase 1 have been measured for each example compound using the following procedure:
Biochemical In Vitro Assay Using Fluorescence Readout
To generate the enzyme, full length human TPH1 is cloned into the plasmid pET20b(+) (Novagen) and expressed in E. coli. The bacterial cells are ruptured by sonication on ice and the lysate is cleared by centrifugation. The resulting protein in the pellet is re-extracted and TPH1 is purified from the obtained lysate by affinity chromatography using a pterin cosubstrate analog immobilized to the resin of the column. The protein is further purified by size exclusion chromatography to remove protein aggregates. The activity of TPH1 is determined by using a fluorescence assay. The enzyme activity assay is carried out at 15° C. with atmosphere oxygen for the duration of 60 minutes in a volume of 64 μl. The reaction is carried out in a 0.1M Tris-HCl buffer, adjusted to pH 7.6, containing 1 mM DTT, 0.2 mg/ml catalase, 100 μM (±)-6-methyl-5,6,7,8-tetrahydropterine dihydrochloride, 40 μM L-tryptophan, and 40-80 nM of TPH1. The reaction is started by bringing together L-tryptophan with all the other reaction substituents and stopped by quenching with perchloric acid (HClO4). The amount of 5-hydroxy-L-tryptophan produced during the enzymatic reaction is determined by fluorescence readout. Fluorescence, as determined at 540 nm when excited at 300 nm wavelength, increases proportionally to the 5-hydroxy-L-tryptophan formed. Compounds are prepared as 10 mM stock solution in DMSO, then diluted in 384-well plates using DMSO followed by a transfer of the dilutions into the assay plate. Fluorescence is measured for each well and the fluorescence at 540 nm wavelength is compared to the fluorescence of the vehicle in place of compound. Inhibitory activities of example compounds with respect to the TPH1 protein are determined by calculating the IC50 value (the concentration of compound needed to inhibit 50% of the enzyme activity). The calculated IC50 values may fluctuate depending on the daily biochemical assay performance. Fluctuations of this kind are known to those skilled in the art. In the case where IC50 values have been determined several times for the same compound, the mean is given.

IC50 [nM] | Structure (SMILES)
18 | Cc1ccc(C2c3c(nc4n3CCCC4)CCN2C(=O)COc2ccc(N3CCN(C)CC3)nc2Cl)c(F)c1F (centres unmarked) [Example 1.9.4, 2-((2-chloro-6-(4-methylpiperazin-1-yl)pyridin-3-yl)oxy)-1-(1-(2,3-difluoro-4-methylphenyl)-3,4,6,7,8,9-hexahydroimidazo[1,2-a:5,4-c′]dipyridin-2(1H)-yl)ethanone]
131 | CC(C)(O)c1ccc(C2c3c(nc4n3CCCC4)CCN2C(=O)COc2ccc(NS(C)(=O)=O)nc2Cl)c(F)c1 (centres unmarked) [Example 1.24.2, N-(6-chloro-5-(2-(1-(2-fluoro-4-(2-hydroxypropan-2-yl)phenyl)-3,4,6,7,8,9-hexahydroimidazo[1,2-a:5,4-c′]dipyridin-2(1H)-yl)-2-oxoethoxy)pyridin-2-yl)methanesulfonamide]
7 | CCc1nc(N2CCCS2(=O)=O)ccc1OCC(=O)N1CCc2nc3n(c2[C@@H]1c1sc(C)nc1C)CCC3 [Example 2.4.4, (R)-1-(1-(2,4-dimethylthiazol-5-yl)-3,4,7,8-tetrahydro-1H-pyrrolo[2′,1′:2,3]imidazo[4,5-c]pyridin-2(6H)-yl)-2-((6-(1,1-dioxidoisothiazolidin-2-yl)-2-ethylpyridin-3-yl)oxy)ethanone]
4 | CC(=O)N1CCn2c(nc3c2C(c2ccc(C4CC4)cc2F)N(C(=O)COc2ccc(C(=O)N(C)C)nc2Cl)CC3)C1 (centres unmarked) [Example 5.2.13, 5-(2-(7-acetyl-1-(4-cyclopropyl-2-fluorophenyl)-3,4,6,7,8,9-hexahydropyrido[4′,3′:4,5]imidazo[1,2-a]pyrazin-2(1H)-yl)-2-oxoethoxy)-6-chloro-N,N-dimethylpicolinamide]
9 | CC(=O)N1CCn2c(nc3c2C(c2ncc(C4CC4)cc2F)N(C(=O)COc2ccc(N4CCOCC4)nc2Cl)CC3)C1 (centres unmarked) [Example 5.4.6, 1-(7-acetyl-1-(5-cyclopropyl-3-fluoropyridin-2-yl)-3,4,6,7,8,9-hexahydropyrido[4′,3′:4,5]imidazo[1,2-a]pyrazin-2(1H)-yl)-2-((2-chloro-6-morpholinopyridin-3-yl)oxy)ethanone]
11 | O=C(COc1ccc(C2CC2)nc1Cl)N1CCc2nc3n(c2C1c1ccc(Cl)cc1F)CCS3 (centres unmarked) [Example 4.1.13, 1-(5-(4-chloro-2-fluorophenyl)-2,3,7,8-tetrahydrothiazolo[2′,3′:2,3]imidazo[4,5-c]pyridin-6(5H)-yl)-2-((2-chloro-6-cyclopropylpyridin-3-yl)oxy)ethanone]
132 | Cc1nc(C)c(C2c3c(nc4n3CCCC4)CCN2C(=O)COc2ccc(C(F)(F)F)cc2Cl)s1 (centres unmarked) [Example 1.10.11, 2-(2-chloro-4-(trifluoromethyl)phenoxy)-1-(1-(2,4-dimethylthiazol-5-yl)-3,4,6,7,8,9-hexahydroimi-dazo[1,2-a:5,4-c′]dipyridin-2(1H)-yl)ethanone]
5 | CCc1nc(C(=O)NC2CC2)ccc1OCC(=O)N1CCc2nc3n(c2[C@@H]1c1sc(C)nc1C)CCCC3 [Example 1.10.17, (R)-N-cyclopropyl-5-(2-(1-(2,4-dimethylthiazol-5-yl)-3,4,6,7,8,9-hexahydroimidazo[1,2-a:5,4-c′]dipyridin-2(1H)-yl)-2-oxoethoxy)-6-ethylpicolinamide]
58 | CS(=O)(=O)Nc1ccc(OC2(C(=O)N3CCc4nc5n(c4C3c3ccc(Cl)cc3F)CCCC5)CC2)c(Cl)n1 (centres unmarked) [Example 1.1.19, N-(6-chloro-5-(1-(1-(4-chloro-2-fluorophenyl)-1,2,3,4,6,7,8,9-octahydroimidazo[1,2-a:5,4-c′]dipyridine-2-carbonyl)cyclopropoxy)pyridin-2-yl)methanesulfonamide]
11 | CN(C)C(=O)c1ccc(OCC(=O)N2CCc3nc4n(c3C2c2ccc(C3CC3)cc2F)CCCC4)c(Cl)n1 (centres unmarked) [Example 1.8.4, 6-chloro-5-(2-(1-(4-cyclopropyl-2-fluorophenyl)-3,4,6,7,8,9-hexahydroimidazo[1,2-a:5,4-c′]dipyridin-2(1H)-yl)-2-oxoethoxy)-N,N-dimethylpicolinamide]
15 | CC(=O)N1CCn2c(nc3c2C(c2ncc(C4CC4)cc2F)N(C(=O)COc2cc(F)c(N4CCOCC4)nc2Cl)CC3)C1 (centres unmarked) [Example 5.4.9, 1-(7-acetyl-1-(5-cyclopropyl-3-fluoropyridin-2-yl)-3,4,6,7,8,9-hexahydropyrido[4′,3′:4,5]imidazo[1,2-a]pyrazin-2(1H)-yl)-2-((2-chloro-5-fluoro-6-morpholinopyridin-3-yl)oxy)ethanone]
16 | CCc1nc(NS(C)(=O)=O)ccc1OCC(=O)N1CCc2nc3n(c2C1c1sccc1F)CCCC3 (centres unmarked) [Example 1.14.1, N-(6-ethyl-5-(2-(1-(3-fluorothiophen-2-yl)-3,4,6,7,8,9-hexahydroimidazo[1,2-a:5,4-c′]dipyridin-2(1H)-yl)-2-oxoethoxy)pyridin-2-yl)methanesulfonamide]
8 | O=C(COc1ccc(N2CCOCC2)nc1Cl)N1CCc2nc3n(c2C1c1sccc1F)CCOC3 (centres unmarked) [Example 6.6.1, 2-((2-chloro-6-morpholinopyridin-3-yl)oxy)-1-(6-(3-fluorothiophen-2-yl)-3,4,8,9-tetrahydro-1H-pyrido[4′,3′:4,5]imidazo[2,1-c][1,4]oxazin-7(6H)-yl)ethanone]
16 | O=C(COc1ccc(C2CC2)nc1Cl)N1CCc2nc3n(c2C1c1ccc(Cl)cc1F)CCCC3 (centres unmarked) [Example 1.1.14, 1-(1-(4-chloro-2-fluorophenyl)-3,4,6,7,8,9-hexahydroimidazo[1,2-a:5,4-c′]dipyridin-2(1H)-yl)-2-((2-chloro-6-cyclopropylpyridin-3-yl)oxy)ethanone]
18 | COc1ccc(C2c3c(nc4n3CCCC4)CCN2C(=O)COc2ccc(C(=O)NC3CC3)nc2Cl)c(F)c1 (centres unmarked) [Example 1.21.1, 6-chloro-N-cyclopropyl-5-(2-(1-(2-fluoro-4-methoxyphenyl)-3,4,6,7,8,9-hexahydroimidazo[1,2-a:5,4-c′]dipyridin-2(1H)-yl)-2-oxoethoxy)picolinamide]
21 | O=C(COc1ccc(-c2ncco2)nc1Cl)N1CCc2nc3n(c2C1c1ccc(Cl)cc1F)CCCC3 (centres unmarked) [Example 1.1.5, 1-(1-(4-chloro-2-fluorophenyl)-3,4,6,7,8,9-hexahydro-imidazo[1,2-a:5,4-c′]dipyridin-2(1H)-yl)-2-((2-chloro-6-(oxazol-2-yl)pyridin-3-yl)oxy)ethanone]
21 | CS(=O)(=O)Nc1ccc(OCC(=O)N2CCc3nc4n(c3C2c2ccc(Cl)cc2F)CCCC4)c(C2CC2)n1 (centres unmarked) [Example 1.1.20, N-(5-(2-(1-(4-chloro-2-fluorophenyl)-3,4,6,7,8,9-hexahydroimidazo[1,2-a:5,4-c′]dipyridin-2(1H)-yl)-2-oxoethoxy)-6-cyclopropylpyridin-2-yl)methanesulfonamide]
91 | CC(=O)N1CCn2c(nc3c2C(c2ncc(C4CC4)cc2F)N(C(=O)COc2ccc(N4CCOCC4)nc2F)CC3)C1 (centres unmarked) [Example 5.4.8, 1-(7-acetyl-1-(5-cyclopropyl-3-fluoropyridin-2-yl)-3,4,6,7,8,9-hexahydropyrido[4′,3′:4,5]imidazo[1,2-a]pyrazin-2(1H)-yl)-2-((2-fluoro-6-morpholinopyridin-3-yl)oxy)ethanone]
5 | CC(=O)N1CCn2c(nc3c2C(c2ccc(C4CC4)cc2F)N(C(=O)COc2ccc(N4CCOCC4)nc2Cl)CC3)C1 (centres unmarked) [Example 5.2.8, 1-(7-acetyl-1-(4-cyclopropyl-2-fluorophenyl)-3,4,6,7,8,9-hexahydropyrido[4′,3′:4,5]imidazo[1,2-a]pyrazin-2(1H)-yl)-2-((2-chloro-6-morpholinopyridin-3-yl)oxy)ethanone]
29 | CN(C)C(=O)c1ccc(OCC(=O)N2CCc3nc4n(c3C2c2sccc2F)CCOC4)c(Cl)n1 (centres unmarked) [Example 6.6.2, 6-chloro-5-(2-(6-(3-fluorothiophen-2-yl)-3,4,8,9-tetrahydro-1H-pyrido[4′,3′:4,5]imidazo[2,1-c][1,4]oxazin-7(6H)-yl)-2-oxoethoxy)-N,N-dimethylpicolinamide]
